Assay results: patent publication US10197583B2, “Hydroxycholesterol immunoassay” (ENZO LIFE SCIENCES, INC. C/O ENZO BIOCHEM, INC., priority 2010, dated 2019)

Experiments:
[1] = system: rabbit antisera to 24S-hydroxycholesterol (Day 77 bleed, rabbit #72); assay: Cross-reactivity in competitive 24HC enzyme immunoassay, antiserum of rabbit #72; format: binding; settings: for % Cross reactivity: Table 2, antiserum Day 77 bleed, rabbit #72, relative to 24HC; for Bleed #72 % Cross reactivity: Table 3, repeat of the rabbit #72 antisera
Method: (§1) 24HC Enzyme Immunoassay Protocol
(§2) 1. Known concentrations of 24HC were prepared in 100 mM phosphate, 150 mM NaCl, 1% BSA, pH 7.2 assay buffer containing biotinylated […] (described above) and added to wells of a 96 well microtiter plate that were coated with a goat anti-rabbit IgG antibody. Rabbit polyclonal antibody to 24HC was diluted to a limiting concentration in 100 mM Tris, 150 mM NaCl, 1% BSA buffer and 100 μL was added to each well. The plate was incubated at room temperature for 1 hour with orbital shaking. During this incubation the anti-24HC antibody binds to the goat anti-rabbit IgG antibody on the plate. Also, the 24HC standard competes with the biotinylated 24HC for anti-24HC antibody binding sites. Thus, with more 24HC standard, less biotinylated 24HC binds to the antibody binding sites on the plate.
(§3) 2. Following this incubation, the plate was washed 4 times with 300 μL of 50 mM Tris, 100 mM NaCl, 0.05% Tween-20 buffer. After washing, bound 24HC or bound biotinylated 24HC is bound to the binding sites on the anti-24HC antibodies.
(§4) 3. Streptavidin conjugated to HRP (200 μL), diluted in 100 mM phosphate, 150 mM NaCl, 1% BSA, pH 7.2 assay buffer, was then added to each well to allow detection of the biotinylated 24HC. The plate was then incubated at room temperature for 30 minutes.
(§5) 4. The plate was then washed 4 times with 300 μL of 50 mM Tris, 100 mM NaCl, 0.05% Tween-20 buffer to remove excess streptavidin-HRP conjugate. TMB substrate solution (200 μL) is added to each well. The plates were incubated at room temperature for 30 min.
(§6) 5. After color development, 50 μL of 1N HCl stop solution is added to each well to stop the substrate reaction. The resulting yellow color was read at 450 nm. […]. The intensity of yellow color is inversely proportional to the concentration of 24HC that was added to the well.
The multiple regression line shown therein has an R^2 of 0.996. The detectable range for 24HC for this assay is as shown is 1.56-100 ng/mL. The total assay time is 2 h.
Cross-reactivity of the antisera tested above (Day 77 bleed, rabbit #72) to the following structurally similar molecules was determined:
(§7) Cross-reactivities of antisera taken from another rabbit at Day 77 (rabbit #71), subjected to the same immunization protocol, as well as a repeat of the rabbit #72 antisera, were also determined.

[2] = system: rabbit antisera to 24S-hydroxycholesterol (Day 77, rabbit #71); assay: Cross-reactivity in competitive 24HC enzyme immunoassay, antiserum of rabbit #71; format: binding; settings: Table 3; antiserum Day 77, rabbit #71
Method: as §1, §2, §3, §4, §5, §6, §7

CC(C)CC[C@@H](O)[C@@H](C)[C@H]1CC[C@H]2[C@@H]3CC=C4CC(O)CC[C@]4(C)[C@H]3CC[C@]12C (stereo in doubt) [22-Hydroxycholesterol]
% Cross reactivity [1]: 0.15%
Bleed #72 % Cross reactivity [1]: 0.11%
Bleed #71 % Cross reactivity [2]: 0.020%

C[C@H](CCCC(C)(C)O)[C@H]1CC[C@H]2[C@@H]3CC=C4C[C@@H](O)CC[C@]4(C)[C@H]3CC[C@]12C [25-Hydroxycholesterol]
Bleed #72 % Cross reactivity [1]: 0.725%
Bleed #71 % Cross reactivity [2]: 0.19%

C[C@@H](CO)CCC[C@@H](C)[C@H]1CC[C@H]2[C@@H]3CC=C4C[C@@H](O)CC[C@]4(C)[C@H]3CC[C@]12C [27-Hydroxycholesterol]
Bleed #72 % Cross reactivity [1]: <0.001%
Bleed #71 % Cross reactivity [2]: 0.022%

CC(C)CCC[C@@H](C)[C@H]1CC[C@H]2[C@@H]3CC=C4C[C@@H](O)CC[C@]4(C)[C@H]3CC[C@]12C [Cholesterol]
% Cross reactivity [1]: <0.001%
Bleed #72 % Cross reactivity [1]: 0.003%
Bleed #71 % Cross reactivity [2]: 0.002%

C[C@]12CC[C@H](O)CC1=CC[C@@H]1[C@@H]2CC[C@]2(C)C(=O)CC[C@@H]12 [DHEA]
% Cross reactivity [1]: 0.05%
Bleed #72 % Cross reactivity [1]: 0.018%
Bleed #71 % Cross reactivity [2]: 0.015%
